Test results as given in patent US20240183842A1, “Supercharged Biovesicles and Methods of Use Thereof” (The General Hospital Corporation, priority 2021, published 2024).

Columns and labels:
HEK293T cells = experiment: Inhibitor pretreatment before Bodipy TR-scEV uptake, flow cytometry; format: cell-based, human; settings: for +scProtein fluorescence levels compared to sham / Bodipy TR fluorescence in recipient cells (scEV uptake) compared to sham: 1 h pretreatment, 24 h Bodipy TR-scEVs, CHL 10 μM, Bort 5 μM; for Bodipy TR fluorescence in recipient cells (scEV uptake) compared to sham: ConA 200 nM, Baf 200 nM
Protocol: For inhibitor treatment before scEV uptake, HEK293T cells (50,000 cells per well) were seeded in 24-well culture plates (Falcon) for 24 h in DMEM with serum. The cells were then pre-incubated with the inhibitors in Optimem without serum. […] The labelled EVs (10^7-10^8 particles) were added each well for 24 h in the presence of the indicated inhibitors. Following incubation, cells were trypsinized and analyzed based on scProtein and Bodipy TR fluorescence on a Beckman SORP 5 Laser BD Fortessa Flow Cytometer in the MGH core facility.
FLOW CYTOMETRY. Flow cytometric analysis was performed on the Beckman SORP 5 Laser BD Fortessa Flow Cytometer in the MGH core facility. Forward and side scatter signals were used to distinguish live cells from polystyrene beads. Proper gating was performed to identify positive fluorescent signals compared to non-stained or single stained controls.

[1] = molecular target: Flag-Tag affinity beads (antibody based magnetic beads); experiment: elution of bead-bound NoMi-EVs with free Flag peptide, nanoluciferase bioluminescence read-out

| percent of EVs recovered from the beads by peptide elution [1] | Molecule | +scProtein fluorescence levels compared to sham (HEK293T cells) | Bodipy TR fluorescence in recipient cells (scEV uptake) compared to sham (HEK293T cells) | +scProtein fluorescence in combination with Baf and ConA (HEK293T cells; Bort combined with Baf or ConA) |
| --- | --- | --- | --- | --- |
|  | CC(C)C[C@H](NC(=O)[C@H](Cc1ccccc1)NC(=O)c1cnccn1)B(O)O [Bortezomib] | increase | increased scEV uptake | increased |
|  | C/C=C/[C@H]1O[C@@](O)([C@@H](C)[C@H](O)[C@H](C)[C@H]2OC(=O)/C(OC)=C/C(C)=C/[C@@H](C)[C@@H](O)[C@@H](CC)[C@@H](O)[C@H](C)C/C(C)=C/C=C/[C@@H]2OC)C[C@@H](O[C@H]2C[C@@H](O)[C@H](OC(N)=O)[C@@H](C)O2)[C@@H]1C [concanamycin A] |  | No significant decrease |  |
|  | CCN(CC)CCCC(C)Nc1ccnc2cc(Cl)ccc12 (centres unmarked) [Chloroquine] | increase | significantly increase |  |
|  | CO/C1=C\C(C)=C\[C@@H](C)[C@@H](O)[C@@H](C)C/C(C)=C/C=C/[C@H](OC)[C@@H]([C@@H](C)[C@@H](O)[C@H](C)[C@@]2(O)C[C@@H](O)[C@H](C)[C@@H](C(C)C)O2)OC1=O [Bafilomycin A1] |  | No significant decrease |  |
| 75% | DYDKDDDK [Flag-Tag peptide] |  |  |  |
